Measured values published in US20260078119A1, “DEGRADER COMPOUNDS AND USES THEREOF” (Bristol-Myers Squibb Company, priority 2024, published 2026).

How the values were obtained:
CAL-51 cells = test: CAL-51 Cell Proliferation Assay; format: cell-based; settings: for EC50: Homo sapiens, 120 hours incubation, 10-point dose response, 4-fold dilutions starting at 10 μM, Cell-Titer-Glo, read-out: CAL-51 Prolif EC50; for CAL-51 Prolif Ymin: minimal percent of DMSO control observed in the concentrations tested (Ymin-obs), 120 hours
Outline: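 Cells seeded at 350/well in RPMI complete medium onto 10-point, 4-fold compound dilutions from 10 μM (0.1% DMSO), in duplicate, and grown 120 h at 37 °C. CellTiter-Glo luminescence, blank-subtracted and normalised to DMSO, was fitted with a four-parameter logistic to give EC50; Ymin-obs is the lowest observed percent of DMSO control.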

FAK = target: T1, FAK (Homo sapiens, UniProt Q05397); test: FAK-HiBiT Degradation Assay; format: cell-based; settings: for DC50: JHH-4-FAK-HiBiT clone d01 cells, two hours incubation, 10-point dose response, 3-fold dilution starting at 1 μM, Nano-Glo HiBiT luminescence, read-out: FAK HiBiT EC50; for FAK HiBiT Ymin: lower limit of the four parameter fit (value A), Ymax derived using DMSO control, JHH-4-FAK-HiBiT cells, two hours
T1 construct: homozygous knock-in of a HiBiT tag (Promega Corporation, Madison, WI) to the C-terminus of the FAK gene in its natural genomic locus; endogenous in cells; host or cells: JHH-4-FAK-HiBiT clone d01 (CRISPR-Cas9 knock-in at the endogenous locus)
T1 sequence (Q05397 whole entry): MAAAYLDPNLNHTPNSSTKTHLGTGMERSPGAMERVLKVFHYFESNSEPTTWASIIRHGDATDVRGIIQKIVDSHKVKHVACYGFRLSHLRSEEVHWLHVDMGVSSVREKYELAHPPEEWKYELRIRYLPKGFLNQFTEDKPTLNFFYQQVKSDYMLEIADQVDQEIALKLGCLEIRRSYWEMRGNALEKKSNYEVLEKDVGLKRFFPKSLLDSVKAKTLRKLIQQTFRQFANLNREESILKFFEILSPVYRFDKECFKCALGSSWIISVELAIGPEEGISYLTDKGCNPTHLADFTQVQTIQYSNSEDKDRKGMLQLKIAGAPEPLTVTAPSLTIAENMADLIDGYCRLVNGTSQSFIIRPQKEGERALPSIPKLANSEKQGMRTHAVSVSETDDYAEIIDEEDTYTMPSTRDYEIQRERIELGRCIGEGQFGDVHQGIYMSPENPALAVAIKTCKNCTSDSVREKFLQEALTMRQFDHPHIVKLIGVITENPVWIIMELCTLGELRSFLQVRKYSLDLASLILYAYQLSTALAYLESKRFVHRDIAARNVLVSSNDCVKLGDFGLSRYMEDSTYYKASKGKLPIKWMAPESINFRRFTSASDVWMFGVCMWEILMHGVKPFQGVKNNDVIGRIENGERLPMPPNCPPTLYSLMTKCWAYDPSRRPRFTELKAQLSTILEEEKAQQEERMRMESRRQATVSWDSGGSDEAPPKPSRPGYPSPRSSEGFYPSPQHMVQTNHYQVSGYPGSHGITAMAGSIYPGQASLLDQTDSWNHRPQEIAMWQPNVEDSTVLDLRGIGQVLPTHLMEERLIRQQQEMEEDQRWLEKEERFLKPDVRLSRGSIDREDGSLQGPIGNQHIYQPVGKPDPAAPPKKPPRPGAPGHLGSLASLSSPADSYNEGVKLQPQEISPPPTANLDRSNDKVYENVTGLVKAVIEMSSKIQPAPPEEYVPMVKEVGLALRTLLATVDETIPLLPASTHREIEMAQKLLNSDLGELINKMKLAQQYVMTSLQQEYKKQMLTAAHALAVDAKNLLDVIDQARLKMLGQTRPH
Outline: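 JHH-4 cells with homozygous CRISPR knock-in of C-terminal HiBiT on endogenous FAK, treated 2 h at 37 °C with compounds in 10-point 3-fold series from 1 μM. HiBiT lytic luminescence read; EC50 from four-parameter logistic fit, Ymax set by DMSO control, Ymin as lower fit limit.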

Row | SMILES | EC50 (CAL-51 cells) | CAL-51 Prolif Ymin (CAL-51 cells) | DC50 (FAK) | FAK HiBiT Ymin (FAK)
1 | O=C1CCC(N2Cc3cc(Cn4ncc5c(-c6ncc(F)cc6Cl)c(F)c(N6CC(F)C6)nc54)ccc3C2=O)C(=O)N1 (stereo not drawn) [Example 31, 3-(5-{[4-(3-chloro-5-fluoropyridin-2-yl)-5-fluoro-6-(3-fluoroazetidin-1-yl)-1H-pyrazolo[3,4-b]pyridin-1-yl]methyl}-1-oxo-2,3-dihydro-1H-isoindol-2-yl)piperidine-2,6-dione] | 3.89 nM | 34.80 | 0.76 nM | 8.92
2 | CCOc1cnc(-c2cc(N3CC(F)C3)nc3c2cnn3Cc2ccc3c(c2)CN([C@H]2CCC(=O)NC2=O)C3=O)c(C(F)(F)F)c1 [Example 32, (3S)-3-[5-({4-[5-ethoxy-3-(trifluoromethyl)pyridin-2-yl]-6-(3-fluoroazetidin-1-yl)-1H-pyrazolo[3,4-b]pyridin-1-yl}methyl)-1-oxo-2,3-dihydro-1H-isoindol-2-yl]piperidine-2,6-dione] | 0.44 nM | 9.16 | 0.82 nM | 9.44
3 | O=C1CCC(N2Cc3cc(Cn4ncc5c(-c6ncc(C(F)(F)F)cc6Cl)cc(N6CC(F)C6)nc54)cc(F)c3C2=O)C(=O)N1 (stereo not drawn) [Example 33, 3-[5-({4-[3-chloro-5-(trifluoromethyl)pyridin-2-yl]-6-(3-fluoroazetidin-1-yl)-1H-pyrazolo[3,4-b]pyridin-1-yl}methyl)-7-fluoro-1-oxo-2,3-dihydro-1H-isoindol-2-yl]piperidine-2,6-dione] | 0.51 nM | 26.78 | 0.91 nM | 5.36
4 | O=C1CCC(N2Cc3cc(Cn4ncc5c(-c6ncc(C(F)(F)F)cc6Cl)cc(N6CC(F)C6)nc54)ccc3C2=O)C(=O)N1 (stereo not drawn) [Example 34, 3-[5-({4-[3-chloro-5-(trifluoromethyl)pyridin-2-yl]-6-(3-fluoroazetidin-1-yl)-1H-pyrazolo[3,4-b]pyridin-1-yl}methyl)-1-oxo-2,3-dihydro-1H-isoindol-2-yl]piperidine-2,6-dione] | 1.08 nM | 26.10 | 0.91 nM | 8.98
5 | O=C1CCC(N2Cc3cc(Cn4ncc5c(-c6ncc(Cl)cc6Cl)cc(N6CC(F)C6)nc54)ccc3C2=O)C(=O)N1 (stereo not drawn) [Example 35, 3-(5-{[4-(3,5-dichloropyridin-2-yl)-6-(3-fluoroazetidin-1-yl)-1H-pyrazolo[3,4-b]pyridin-1-yl]methyl}-1-oxo-2,3-dihydro-1H-isoindol-2-yl)piperidine-2,6-dione] | 0.59 nM | 21.28 | 0.97 nM | 10.02
6 | O=C1CCC(N2Cc3cc(Cn4ncc5c(-c6ncccc6Cl)c(F)c(N6CC(F)C6)nc54)ccc3C2=O)C(=O)N1 (stereo not drawn) [Example 36, 3-(5-{[4-(3-chloropyridin-2-yl)-5-fluoro-6-(3-fluoroazetidin-1-yl)-1H-pyrazolo[3,4-b]pyridin-1-yl]methyl}-1-oxo-2,3-dihydro-1H-isoindol-2-yl)piperidine-2,6-dione] | 0.5 nM | 24.38 | 0.98 nM | 8.36
7 | Cc1cc(Cl)cnc1-c1c(F)c(N2CC(F)C2)nc2c1cnn2Cc1ccc2c(c1)CN(C1CCC(=O)NC1=O)C2=O (stereo not drawn) [Example 37, 3-(5-{[4-(5-chloro-3-methylpyridin-2-yl)-5-fluoro-6-(3-fluoroazetidin-1-yl)-1H-pyrazolo[3,4-b]pyridin-1-yl]methyl}-1-oxo-2,3-dihydro-1H-isoindol-2-yl)piperidine-2,6-dione] | 0.6 nM | 19.81 | 0.98 nM | 7.33
8 | O=C1CCC(N2Cc3cc(Cn4ncc5c(-c6ncccc6Cl)c(Cl)c(N6CC(F)C6)nc54)ccc3C2=O)C(=O)N1 (stereo not drawn) [Example 38, 3-(5-{[5-chloro-4-(3-chloropyridin-2-yl)-6-(3-fluoroazetidin-1-yl)-1H-pyrazolo[3,4-b]pyridin-1-yl]methyl}-1-oxo-2,3-dihydro-1H-isoindol-2-yl)piperidine-2,6-dione] | 0.48 nM | 21.89 | 1.09 nM | 8.19
9 | CCOc1ccc(-c2cc(N3CC(F)C3)nc3c2cnn3Cc2ccc3c(c2)CN([C@H]2CCC(=O)NC2=O)C3=O)c(C)c1 [Example 39, (3S)-3-(5-{[4-(4-ethoxy-2-methylphenyl)-6-(3-fluoroazetidin-1-yl)-1H-pyrazolo[3,4-b]pyridin-1-yl]methyl}-1-oxo-2,3-dihydro-1H-isoindol-2-yl)piperidine-2,6-dione] | 0.82 nM | 28.13 | 1.12 nM | 7.78
10 | O=C1CCC(N2Cc3c(ccc(Cn4ncc5c(-c6ncc(C(F)(F)F)cc6Cl)cc(N6CC(F)C6)nc54)c3F)C2=O)C(=O)N1 (stereo not drawn) [Example 40, 3-[5-({4-[3-chloro-5-(trifluoromethyl)pyridin-2-yl]-6-(3-fluoroazetidin-1-yl)-1H-pyrazolo[3,4-b]pyridin-1-yl}methyl)-4-fluoro-1-oxo-2,3-dihydro-1H-isoindol-2-yl]piperidine-2,6-dione] | 11.2 nM | 36.00 | 1.15 nM | 6.87
11 | N#Cc1ccc(-c2c(F)c(N3CC(F)C3)nc3c2cnn3Cc2ccc3c(c2)CN(C2CCC(=O)NC2=O)C3=O)c(F)c1 (stereo not drawn) [Example 41, 4-(1-{[2-(2,6-dioxopiperidin-3-yl)-1-oxo-2,3-dihydro-1H-isoindol-5-yl]methyl}-5-fluoro-6-(3-fluoroazetidin-1-yl)-1H-pyrazolo[3,4-b]pyridin-4-yl)-3-fluorobenzonitrile] | 1.23 nM | 26.68 | 1.22 nM | 10.49
12 | O=C1CC[C@H](N2Cc3cc(Cn4ncc5c(-c6ncc(F)cc6Cl)cc(N6CC(F)C6)nc54)cc(F)c3C2=O)C(=O)N1 [Example 42, (3S)-3-(5-{[4-(3-chloro-5-fluoropyridin-2-yl)-6-(3-fluoroazetidin-1-yl)-1H-pyrazolo[3,4-b]pyridin-1-yl]methyl}-7-fluoro-1-oxo-2,3-dihydro-1H-isoindol-2-yl)piperidine-2,6-dione] | 1.92 nM | 24.80 | 1.24 nM | 5.70
13 | O=C1CCC(N2Cc3cc(Cn4ncc5c(-c6ncc(C(F)F)cc6Cl)cc(N6CC(F)C6)nc54)ccc3C2=O)C(=O)N1 (stereo not drawn) [Example 43, 3-[5-({4-[3-chloro-5-(difluoromethyl)pyridin-2-yl]-6-(3-fluoroazetidin-1-yl)-1H-pyrazolo[3,4-b]pyridin-1-yl}methyl)-1-oxo-2,3-dihydro-1H-isoindol-2-yl]piperidine-2,6-dione] | 155 nM | 51.95 | 1.59 nM | 6.11
14 | CCOc1cnc(-c2cc(N3CC(F)C3)nc3c2cnn3Cc2ccc3c(c2)CN(C2CCC(=O)NC2=O)C3=O)c(Cl)c1 (stereo not drawn) [Example 44, 3-(5-{[4-(3-chloro-5-ethoxypyridin-2-yl)-6-(3-fluoroazetidin-1-yl)-1H-pyrazolo[3,4-b]pyridin-1-yl]methyl}-1-oxo-2,3-dihydro-1H-isoindol-2-yl)piperidine-2,6-dione] | 0.69 nM | 28.22 | 1.73 nM | 11.00
15 | CC(C)Nc1cc(-c2ncc(C(F)(F)F)cc2Cl)c2cnn(Cc3ccc4c(c3)CN([C@H]3CCC(=O)NC3=O)C4=O)c2n1 [Example 45, (3S)-3-[5-({4-[3-chloro-5-(trifluoromethyl)pyridin-2-yl]-6-[(propan-2-yl)amino]-1H-pyrazolo[3,4-b]pyridin-1-yl}methyl)-1-oxo-2,3-dihydro-1H-isoindol-2-yl]piperidine-2,6-dione] | 0.76 nM | 30.48 | 1.76 nM | 6.88
16 | CCOc1cnc(-c2cc(N3CC(F)C3)nc3c2cnn3Cc2ccc3c(c2)CN(C2CCC(=O)NC2=O)C3=O)c(C#N)c1 (stereo not drawn) [Example 46, 2-(1-{[2-(2,6-dioxopiperidin-3-yl)-1-oxo-2,3-dihydro-1H-isoindol-5-yl]methyl}-6-(3-fluoroazetidin-1-yl)-1H-pyrazolo[3,4-b]pyridin-4-yl)-5-ethoxypyridine-3-carbonitrile] | 0.91 nM | 30.10 | 1.79 nM | 8.57
17 | O=C1CC[C@H](N2Cc3cc(Cn4ncc5c(-c6ncc(Cl)cc6F)cc(N6CC(F)C6)nc54)ccc3C2=O)C(=O)N1 [Example 47, (3S)-3-(5-{[4-(5-chloro-3-fluoropyridin-2-yl)-6-(3-fluoroazetidin-1-yl)-1H-pyrazolo[3,4-b]pyridin-1-yl]methyl}-1-oxo-2,3-dihydro-1H-isoindol-2-yl)piperidine-2,6-dione] | 1.96 nM | 39.85 | 1.8 nM | 17.06
18 | O=C1CCC(N2Cc3cc(Cn4ncc5c(-c6ccc(C(F)(F)F)cc6Cl)cc(N6CC(F)C6)nc54)ccc3C2=O)C(=O)N1 (stereo not drawn) [Example 48, 3-[5-({4-[2-chloro-4-(trifluoromethyl)phenyl]-6-(3-fluoroazetidin-1-yl)-1H-pyrazolo[3,4-b]pyridin-1-yl}methyl)-1-oxo-2,3-dihydro-1H-isoindol-2-yl]piperidine-2,6-dione] | 0.52 nM | 19.89 | 1.87 nM | 8.06
